Assay results taken from the supplement of paper PMC13207355.

Legend:
Conditions in all cases: exposure time: 72 h
E21 [1] = patient-derived glioblastoma stem cells of mesenchymal subtype; assay: phenotypic distance (Euclidean, principal components) from DMSO controls (arbitrary units); higher = stronger morphological change
E31 [2] = patient-derived glioblastoma stem cells of proneural subtype; assay: as above
E57 [3] = patient-derived glioblastoma stem cells of mesenchymal subtype; assay: as above
E28 [4] = patient-derived glioblastoma stem cells of classical subtype; assay: as above
E13 [5] = patient-derived glioblastoma stem cells of classical subtype; assay: as above
FT3469 [6] = normal neural stem cell line; assay: as above
E34 [7] = patient-derived glioblastoma stem cells of proneural subtype; assay: as above
E21 [8] = assay: surviving fraction (nuclei count normalised to DMSO); higher = more cells surviving (less toxic)
E31 [9] = assay: as above
E57 [10] = assay: as above
E28 [11] = assay: as above
E13 [12] = assay: as above
FT3469 [13] = assay: as above
E34 [14] = assay: as above
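Wherever phenotypic distance (Euclidean, principal components) from DMSO controls is given: cell Painting imaging in 384-well plates, CellProfiler features reduced to at least 20 principal components, Euclidean distance versus same-plate DMSO vehicle wells (0.1% v/v), median over six images per well.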
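Wherever surviving fraction (nuclei count normalised to DMSO) is given: nuclei counted by high-content imaging of Hoechst-stained cells in laminin-coated 384-well plates, relative to 0.1% DMSO vehicle wells, with staurosporine as cell-death control.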

C[C@H]1Oc2cc(cnc2N)-c2c(nn(C)c2C#N)CN(C)C(=O)c2ccc(F)cc21 [Lorlatinib]
Conditions | phenotypic distance | surviving fraction
E13 [5], 4.1 nM | 0.964 | –
E13 [5], 12.3 nM | 0.749 | –
E13 [5], 37 nM | 1.19 | –
E13 [5], 111.1 nM | 0.958 | –
E13 [5], 333.3 nM | 0.954 | –
E13 [5], 1000 nM | 1.09 | –
E13 [5], 3000 nM | 0.943 | –
E13 [12], 4.1 nM | – | 1.03
E13 [12], 12.3 nM | – | 0.961
E13 [12], 37 nM | – | 1.08
E13 [12], 111.1 nM | – | 1.08
E13 [12], 333.3 nM | – | 1.11
E13 [12], 1000 nM | – | 1
E13 [12], 3000 nM | – | 1.01
E21 [1], 4.1 nM | 0.926 | –
E21 [1], 12.3 nM | 2.32 | –
E21 [1], 37 nM | 1.09 | –
E21 [1], 111.1 nM | 0.89 | –
E21 [1], 333.3 nM | 1.37 | –
E21 [1], 1000 nM | 1.41 | –
E21 [1], 3000 nM | 1.96 | –
E21 [8], 4.1 nM | – | 0.887
E21 [8], 12.3 nM | – | 0.918
E21 [8], 37 nM | – | 0.876
E21 [8], 111.1 nM | – | 0.918
E21 [8], 333.3 nM | – | 0.862
E21 [8], 1000 nM | – | 0.924
E21 [8], 3000 nM | – | 0.768
E28 [4], 4.1 nM | 1.06 | –
E28 [4], 12.3 nM | 0.784 | –
E28 [4], 37 nM | 1.27 | –
E28 [4], 111.1 nM | 1.47 | –
E28 [4], 333.3 nM | 1.29 | –
E28 [4], 1000 nM | 1.31 | –
E28 [4], 3000 nM | 1.79 | –
E28 [11], 4.1 nM | – | 1.11
E28 [11], 12.3 nM | – | 1.02
E28 [11], 37 nM | – | 1.05
E28 [11], 111.1 nM | – | 0.843
E28 [11], 333.3 nM | – | 0.913
E28 [11], 1000 nM | – | 1.07
E28 [11], 3000 nM | – | 0.911
E31 [2], 4.1 nM | 0.873 | –
E31 [2], 12.3 nM | 1.38 | –
E31 [2], 37 nM | 2.47 | –
E31 [2], 111.1 nM | 0.874 | –
E31 [2], 333.3 nM | 1.08 | –
E31 [2], 1000 nM | 1.32 | –
E31 [2], 3000 nM | 1.4 | –
E31 [9], 4.1 nM | – | 1.23
E31 [9], 12.3 nM | – | 0.867
E31 [9], 37 nM | – | 1.06
E31 [9], 111.1 nM | – | 0.986
E31 [9], 333.3 nM | – | 1.17
E31 [9], 1000 nM | – | 1.08
E31 [9], 3000 nM | – | 1.01
E34 [7], 4.1 nM | 0.575 | –
E34 [7], 12.3 nM | 0.814 | –
E34 [7], 37 nM | 1.28 | –
E34 [7], 111.1 nM | 0.761 | –
E34 [7], 333.3 nM | 1.2 | –
E34 [7], 1000 nM | 0.726 | –
E34 [7], 3000 nM | 1.84 | –
E34 [14], 4.1 nM | – | 1.02
E34 [14], 12.3 nM | – | 0.994
E34 [14], 37 nM | – | 0.939
E34 [14], 111.1 nM | – | 1.09
E34 [14], 333.3 nM | – | 0.999
E34 [14], 1000 nM | – | 1.1
E34 [14], 3000 nM | – | 0.792
E57 [3], 4.1 nM | 2.11 | –
E57 [3], 12.3 nM | 3.34 | –
E57 [3], 37 nM | 2.79 | –
E57 [3], 111.1 nM | 3.21 | –
E57 [3], 333.3 nM | 2.46 | –
E57 [3], 1000 nM | 2.74 | –
E57 [3], 3000 nM | 2.66 | –
E57 [10], 4.1 nM | – | 0.87
E57 [10], 12.3 nM | – | 0.808
E57 [10], 37 nM | – | 0.891
E57 [10], 111.1 nM | – | 0.816
E57 [10], 333.3 nM | – | 0.815
E57 [10], 1000 nM | – | 0.794
E57 [10], 3000 nM | – | 0.757
FT3469 [6], 4.1 nM | 1.48 | –
FT3469 [6], 12.3 nM | 0.861 | –
FT3469 [6], 37 nM | 1.31 | –
FT3469 [6], 111.1 nM | 0.981 | –
FT3469 [6], 333.3 nM | 1.15 | –
FT3469 [6], 1000 nM | 0.901 | –
FT3469 [6], 3000 nM | 1.54 | –
FT3469 [13], 4.1 nM | – | 0.89
FT3469 [13], 12.3 nM | – | 1.1
FT3469 [13], 37 nM | – | 0.999
FT3469 [13], 111.1 nM | – | 0.981
FT3469 [13], 333.3 nM | – | 1.03
FT3469 [13], 1000 nM | – | 1.06
FT3469 [13], 3000 nM | – | 0.834

C#C[C@]1(O)CC[C@H]2[C@@H]3CCC4=CCCC[C@@H]4[C@H]3CC[C@@]21C [Lynestrenol]
Conditions | phenotypic distance | surviving fraction
E13 [5], 4.1 nM | 0.399 | –
E13 [5], 12.3 nM | 0.621 | –
E13 [5], 37 nM | 0.422 | –
E13 [5], 111.1 nM | 0.821 | –
E13 [5], 333.3 nM | 0.697 | –
E13 [5], 1000 nM | 0.59 | –
E13 [5], 3000 nM | 1.03 | –
E13 [12], 4.1 nM | – | 0.994
E13 [12], 12.3 nM | – | 0.901
E13 [12], 37 nM | – | 1.03
E13 [12], 111.1 nM | – | 1.05
E13 [12], 333.3 nM | – | 1.03
E13 [12], 1000 nM | – | 1.04
E13 [12], 3000 nM | – | 0.88
E21 [1], 4.1 nM | 0.397 | –
E21 [1], 12.3 nM | 0.584 | –
E21 [1], 37 nM | 0.589 | –
E21 [1], 111.1 nM | 0.676 | –
E21 [1], 333.3 nM | 0.662 | –
E21 [1], 1000 nM | 0.692 | –
E21 [1], 3000 nM | 1.35 | –
E21 [8], 4.1 nM | – | 1.03
E21 [8], 12.3 nM | – | 0.998
E21 [8], 37 nM | – | 1.01
E21 [8], 111.1 nM | – | 1.08
E21 [8], 333.3 nM | – | 1.07
E21 [8], 1000 nM | – | 0.975
E21 [8], 3000 nM | – | 1.08
E28 [4], 4.1 nM | 0.488 | –
E28 [4], 12.3 nM | 0.735 | –
E28 [4], 37 nM | 0.493 | –
E28 [4], 111.1 nM | 0.306 | –
E28 [4], 333.3 nM | 0.694 | –
E28 [4], 1000 nM | 0.828 | –
E28 [4], 3000 nM | 0.566 | –
E28 [11], 4.1 nM | – | 1.06
E28 [11], 12.3 nM | – | 1.05
E28 [11], 37 nM | – | 0.924
E28 [11], 111.1 nM | – | 1.04
E28 [11], 333.3 nM | – | 1.09
E28 [11], 1000 nM | – | 1.16
E28 [11], 3000 nM | – | 1.16
E31 [2], 4.1 nM | 0.539 | –
E31 [2], 12.3 nM | 0.803 | –
E31 [2], 37 nM | 0.671 | –
E31 [2], 111.1 nM | 0.989 | –
E31 [2], 333.3 nM | 0.806 | –
E31 [2], 1000 nM | 0.394 | –
E31 [2], 3000 nM | 1.33 | –
E31 [9], 4.1 nM | – | 0.991
E31 [9], 12.3 nM | – | 1.12
E31 [9], 37 nM | – | 0.813
E31 [9], 111.1 nM | – | 1.26
E31 [9], 333.3 nM | – | 0.895
E31 [9], 1000 nM | – | 1.07
E31 [9], 3000 nM | – | 1.09
E34 [7], 4.1 nM | 0.505 | –
E34 [7], 12.3 nM | 0.89 | –
E34 [7], 37 nM | 0.743 | –
E34 [7], 111.1 nM | 0.994 | –
E34 [7], 333.3 nM | 0.472 | –
E34 [7], 1000 nM | 0.846 | –
E34 [7], 3000 nM | 0.609 | –
E34 [14], 4.1 nM | – | 0.966
E34 [14], 12.3 nM | – | 0.988
E34 [14], 37 nM | – | 0.917
E34 [14], 111.1 nM | – | 1.24
E34 [14], 333.3 nM | – | 1.03
E34 [14], 1000 nM | – | 0.979
E34 [14], 3000 nM | – | 0.946
E57 [3], 4.1 nM | 0.911 | –
E57 [3], 12.3 nM | 0.621 | –
E57 [3], 37 nM | 0.561 | –
E57 [3], 111.1 nM | 0.889 | –
E57 [3], 333.3 nM | 0.765 | –
E57 [3], 1000 nM | 0.843 | –
E57 [3], 3000 nM | 0.439 | –
E57 [10], 4.1 nM | – | 1.2
E57 [10], 12.3 nM | – | 1.03
E57 [10], 37 nM | – | 1.04
E57 [10], 111.1 nM | – | 1.06
E57 [10], 333.3 nM | – | 1.08
E57 [10], 1000 nM | – | 1.17
E57 [10], 3000 nM | – | 1.08
FT3469 [6], 4.1 nM | 0.64 | –
FT3469 [6], 12.3 nM | 1.14 | –
FT3469 [6], 37 nM | 0.738 | –
FT3469 [6], 111.1 nM | 1.23 | –
FT3469 [6], 333.3 nM | 0.567 | –
FT3469 [6], 1000 nM | 0.796 | –
FT3469 [6], 3000 nM | 0.874 | –
FT3469 [13], 4.1 nM | – | 1.1
FT3469 [13], 12.3 nM | – | 1.19
FT3469 [13], 37 nM | – | 0.984
FT3469 [13], 111.1 nM | – | 1.26
FT3469 [13], 333.3 nM | – | 1.07
FT3469 [13], 1000 nM | – | 1.13
FT3469 [13], 3000 nM | – | 1.06
